Source: US20080242594A1, “Methods for Promoting Stem Cell Proliferation and Survival” (priority 2005, published 2008)

Key:
H1 hES cells = test: hES colony number formation, H1; format: cell-based, human; conditions: H1 line
Source text: The human ES cell lines HSF-6 (University of California, San Francisco; NIH # UC06, Passage 38-120) and H1 and H9 (WiCell Research Institute, NIH # WA01 and […]) were maintained on mouse embryonic fibroblasts (MEF) according to the suppliers' protocols. Immunocytochemistry and FACS analysis for the expression of Oct4 and SSEA4 and SKY karyotyping established that the starting cells are undifferentiated and have a normal set of chromosomes. For single cell survival experiments, hES colonies were harvested after treatment with 1.5 mg/ml collagenase type IV (Invitrogen), separated from the MEF feeder cells by repeated washing by gravity, gently triturated to break up colonies into small aggregates, further dissociated into a single cell solution by trypsination (0.05% trypsin/0.04% EDTA) and transferred on MEF feeder cells at a density of 10000 cells/ml. Oct-4 positive colonies were counted six days after plating. […]
The pro-survival effects of activation of Notch and inhibition of JAK was tested on HSF-6 (NIH code UC06, http://escell.ucsf.edu), H1 (NIH code WA01, www.wicell.org) and H9 (NIH code WA09, www.wicell.org) hES cells. Singly dissociated hES cells were plated on mouse embryo fibroblasts (MEFs), treated daily for one week and colony numbers counted. […]

[1] = test system: p38, SMAD1/5/8, MSK-1, STAT3 phosphorylation in hES cells; test: Signalling immunoblots in hES cells; conditions: absence of MEF, within one hour
Experimental: Immunoblotting: Immunoblotting was performed as previously described (Panchision et al., Genes Dev 15:2094-110, 2001). The following antibodies were used in the experiments described below: pSer473-Akt (92715), pSer308-Akt (9275), pSer2448-mTOR (29715), pThr180/Tyr182-p38 (9211), pSMAD1/5/8 (9511) from Cell Signaling; STAT3 (482), pSer727-STAT3 (8001-R), pTyr705-STAT3 (7993) from Santa Cruz; Sonic Hedgehog (R&D, AF464), nucleostemin (McKay Lab), Hes3 (Chemicon, AB5706), α-tubulin (Sigma, T-6074).
To determine whether in the hES system JAK inhibition reduced p38 activity, cells were treated in the absence of MEF with JAK inhibitor for different times and assayed for p38 phosphorylation.

[2] = test system: murine E13.5 cortical stem cell cultures; test: Real-time imaging of lineage, death events and cell cycle; format: cell-based, mouse; conditions: from 4 hours after plating, compared to controls
Experimental: FIGS. 1a-1f are a set of images showing that Notch ligands stimulate survival in CNS stem cell (CNS SC) cultures. FIG. 1a is a bar graph […] the effect of Notch activation by Jagged-1, Delta-4, or combination in the presence of FGF2 for 5 days on plating efficiency, colony size, and BrdU incorporation (following a 4 hour BrdU pulse), over control treatments (FGF2 alone) FIG. 1b is a graph showing lineage and death events in murine E13.5 cortical stem cell cultures in the presence of FGF2 or FGF2 and Delta-4 (“D4”), D114 inhibits cell death in real-time cell lineage experiments (“x” marks time of death). CNS stem cells from embryonic day 13.5 mouse cerebral cortex were plated following one passage and visualized in real-time for 36 hours (images were taken every 2 min). Lineage and death events are represented. Cells were cultured in a closed gas chamber at 37° C. and images of selected fields were taken every two minutes. FIG. 1c is a line graph showing accumulative real-time imaging representation of death even times over 36 hours in culture with or without Delta-4. […] Cell cycle durations for the first two divisions are shown. FIG. 1e is a bar graph showing Delta-4 treatment of CNS SC cultures replaced the requirement for insulin in the medium in a plating efficiency assay. […] In the graphs, data represent Means ±standard deviation (SD). […]

[3] = test system: mouse fetal central nervous system stem cell cultures; test: Survival of fetal CNS stem cell cultures with insulin and Dll4; format: cell-based
Experimental: As there was a tight correlation between the Notch survival pathway and Hes3, it was investigated as to whether Hes3 is a mediator of the Notch pro-survival signalling. It was determined that both insulin and Notch activation promote the survival of foetal and adult neural stem cell cultures and their effects are additive (Tables 8-9).

[4] = test system: adult rat subventricular zone (SVZ); test: Dividing (BrdU+) cells in SVZ after single lateral ventricle injection; format: in vivo; conditions: BrdU for 3 days, sacrificed on the 5th day
Experimental: In vivo, Notch and insulin also increase the number of dividing cells in the adult rat subventricular zone (SVZ) 5 days after a single injection It was determined that Notch and insulin co-operate to promote new (BrdU+) cells in vivo. Specifically, the reagents infused in the lateral ventricle of adult rats as a single injection. The rats were then given BrdU for 3 days and sacrificed on the 5th day (Table 10).

[5] = test system: adult mouse subventricular zone central nervous system stem cell cultures from wild-type mice; test: Survival of adult SVZ stem cell cultures, wild-type mice; format: cell-based
Experimental: (§1) It was determined that adult mouse subventricular zone central nervous system stem cell cultures from wild-type mice respond to D114 by generating twenty-four times more cells, whereas cultures from Hes3 knock-out mice respond to D114 by generating only three times more cells. Thus, in adult mouse neural stem cell cultures, D114 greatly promotes the survival of wild-type cells (23.7±1.7 fold increase), whereas it only slightly stimulates Hes3 knock-out culture survival (2.9±0.2 fold increase).

[6] = test system: cultures from Hes3 knock-out mice; test: Survival of adult SVZ stem cell cultures, Hes3 knock-out mice; format: cell-based, mouse; conditions: Hes3 knock-out culture
Experimental: as §1

| Compound | colony number formation (H1 hES cells) | p38 phosphorylation [1] | death events [2] | Cell # [3] | Cell # [4] | survival, fold increase in cells [5] [fold] | survival, fold increase in cells [6] [fold] |
| --- | --- | --- | --- | --- | --- | --- | --- |
| CC(C)(C)c1nc2c3ccc(F)cc3c3c(=O)[nH]ccc3c2[nH]1 [JAK Inhibitor, 2-(1,1-Dimethylethyl)-9-fluoro-3,6-dihydro-7H-benz[h]-imidaz[4,5-f]isoquinolin-7-one] | 448.5%±57.4 | significantly reduced p38 phosphorylation |  |  |  |  |  |
| Delta-4: soluble Notch ligand Delta-4 (1389-D4) from R&D |  |  | very few death events were observed | High | High | 23.7±1.7 | 2.9±0.2 |
